Test results: patent US12673944B2, “Compounds having inhibitory activity against glucosylceramide synthase or pharmaceutically acceptable salt thereof, processes for preparing the same, and pharmaceutical compositions comprising the same” (YUHAN CORPORATION, priority 2019, dated 2026)

Columns and labels:
[1] = system: GM1 production in Jurkat cells; test: cells; assay type: cell-based; details: Homo sapiens, Jurkat, 72 h
[2] = target: T1, glucosylceramide synthase (GCS) (Homo sapiens, UniProt Q16739); test: GCS enzyme inhibition assay (A549 cell lysate, NBD C6-ceramide, HPLC fluorescence); assay type: biochemical; details: inhibitory activity against GCS, 37° C., 90 minutes
T1 construct: The obtained supernatant was used; host or cells: A549 cells (lysate supernatant after sonication)
T1 sequence (Q16739 1-394): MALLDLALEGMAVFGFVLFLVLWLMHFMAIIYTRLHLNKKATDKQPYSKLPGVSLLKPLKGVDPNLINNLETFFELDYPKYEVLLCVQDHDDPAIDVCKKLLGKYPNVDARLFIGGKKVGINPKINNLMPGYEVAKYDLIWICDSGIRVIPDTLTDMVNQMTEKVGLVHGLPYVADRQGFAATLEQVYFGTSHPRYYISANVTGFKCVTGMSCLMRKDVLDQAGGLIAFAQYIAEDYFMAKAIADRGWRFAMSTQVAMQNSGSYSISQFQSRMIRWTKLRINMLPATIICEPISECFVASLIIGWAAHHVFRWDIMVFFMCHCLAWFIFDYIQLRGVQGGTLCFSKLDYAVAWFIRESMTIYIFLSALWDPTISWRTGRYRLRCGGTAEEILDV
Procedure, shortened: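 Percent GCS activity was derived from the GlcCer share of Cer plus GlcCer areas, scaled from ibiglustat (0%) to DMSO (100%). Enzyme came from sonicated A549 lysate in 50 mM HEPES pH 7.3; 90 min incubation at 37° C, chloroform/methanol stop and extraction.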

## CC1(C)COc2cc(-c3cncs3)ccc2C1NC(=O)O[C@@H]1CN2CCC1CC2 (stereo partly drawn) [Example 243, (S)-quinuclidin-3-yl (3,3-dimethyl-7-(thiazol-5-yl)chroman-4-yl)carbamate]
[1]
  IC50: 24.1 nM
[2]
  IC50: 1.9 nM

## COCCOc1ccccc1-c1ccc2c(c1)OCC(C)(C)C2NC(=O)O[C@@H]1CN2CCC1CC2 (stereo partly drawn) [Example 109, (S)-quinuclidin-3-yl (7-(2-(2-methoxyethoxy)phenyl)-3,3-dimethylchroman-4-yl)carbamate]
[1]
  IC50: 2 nM
[2]
  IC50: 2.14 nM

## CC1(C)COc2cc(-c3cccc(S(=O)(=O)N4CCCC4)c3)ccc2C1NC(=O)O[C@@H]1CN2CCC1CC2 (stereo partly drawn) [Example 184, (S)-quinuclidin-3-yl (3,3-dimethyl-7-(3-(pyrrolidin-1-ylsulfonyl)phenyl)chroman-4-yl)carbamate]
[1]
  IC50: 4.16 nM
[2]
  IC50: 0.91 nM

## CC1(C)COc2cc(-c3ccc(F)cc3)c(F)cc2C1NC(=O)O[C@@H]1CN2CCC1CC2 (stereo partly drawn) [Example 331, (S)-quinuclidin-3-yl (6-fluoro-7-(4-fluorophenyl)-3,3-dimethylchroman-4-yl)carbamate]
[1]
  IC50: 3.7 nM
[2]
  IC50: 0.36 nM

## CC1(C)COc2cc(-c3cc(Cl)ccc3Cl)ccc2C1NC(=O)O[C@@H]1CN2CCC1CC2 (stereo partly drawn) [Example 150, (S)-quinuclidin-3-yl (7-(2,5-dichlorophenyl)-3,3-dimethylchroman-4-yl)carbamate]
[1]
  IC50: 0.4 nM
[2]
  IC50: 0.72 nM

## CC1(C)CC(NC(=O)O[C@@H]2CN3CCC2CC3)c2ccc(-c3cccc(OC(F)(F)F)c3)cc2O1 (stereo partly drawn) [Example 296, (S)-quinuclidin-3-yl (2,2-dimethyl-7-(3-(trifluoromethoxy)phenyl)chroman-4-yl)carbamate]
[1]
  IC50: 1.26 nM
[2]
  IC50: 11.4 nM

## Cc1cc(-c2ccc3c(c2)OCC(C)(C)C3NC(=O)O[C@@H]2CN3CCC2CC3)ccc1N1CCOCC1 (stereo partly drawn) [Example 194, (S)-quinuclidin-3-yl (3,3-dimethyl-7-(3-methyl-4-morpholinophenyl)chroman-4-yl)carbamate]
[1]
  IC50: 1.81 nM
[2]
  IC50: 0.6 nM

## COc1cncc(-c2ccc3c(c2)OCC(C)(C)C3NC(=O)O[C@@H]2CN3CCC2CC3)c1 (stereo partly drawn) [Example 207, (S)-quinuclidin-3-yl (7-(5-methoxypyridin-3-yl)-3,3-dimethylchroman-4-yl)carbamate]
[1]
  IC50: 1.06 nM
[2]
  IC50: 1.12 nM

## CC(C)(C)c1cccc(-c2ccc3c(c2)COCC3NC(=O)O[C@@H]2CN3CCC2CC3)c1 (stereo partly drawn) [Example 312, (S)-quinuclidin-3-yl (7-(3-(tert-butyl)phenyl)isochroman-4-yl)carbamate]
[1]
  IC50: 28.8 nM
[2]
  IC50: 5.62 nM

## CCOc1ccc(-c2ccc3c(c2)OCC(C)(C)C3NC(=O)O[C@@H]2CN3CCC2CC3)cc1C(F)(F)F (stereo partly drawn) [Example 146, (S)-quinuclidin-3-yl (7-(4-ethoxy-3-(trifluoromethyl)phenyl)-3,3-dimethylchroman-4-yl)carbamate]
[1]
  IC50: 2.35 nM
[2]
  IC50: 0.98 nM

## CN1CCC(NC(=O)O[C@@H]2CN3CCC2CC3)c2ccc(-c3coc4ccccc34)cc21 (stereo partly drawn) [Example 315, (S)-quinuclidin-3-yl (7-(benzofuran-3-yl)-1-methyl-1,2,3,4-tetrahydroquinolin-4-yl)carbamate]
[1]
  IC50: 58.1 nM
[2]
  IC50: 14.7 nM

## COc1ccc(-c2ccc3c(c2)OCC(C)(C)C3NC(=O)O[C@@H]2CN3CCC2CC3)cc1Cl (stereo partly drawn) [Example 117, (S)-quinuclidin-3-yl (7-(3-chloro-4-methoxyphenyl)-3,3-dimethylchroman-4-yl)carbamate]
[1]
  IC50: 4.43 nM
[2]
  IC50: 1.66 nM

## COc1c(C)cc(-c2cc3c(cc2F)C(NC(=O)O[C@@H]2CN4CCC2CC4)C(C)(C)CO3)cc1C (stereo partly drawn) [Example 346, (S)-quinuclidin-3-yl (6-fluoro-7-(4-methoxy-3,5-dimethylphenyl)-3,3-dimethylchroman-4-yl)carbamate]
[1]
  IC50: 9.5 nM
[2]
  IC50: 1.18 nM

## CCOc1ccc(-c2ccc3c(c2)OCC(C)(C)C3NC(=O)O[C@@H]2CN3CCC2CC3)cc1F (stereo partly drawn) [Example 124, (S)-quinuclidin-3-yl (7-(4-ethoxy-3-fluorophenyl)-3,3-dimethylchroman-4-yl)carbamate]
[1]
  IC50: 4.47 nM
[2]
  IC50: 0.75 nM

## Cc1ccc(-c2ccc3c(c2)OCC(C)(C)C3NC(=O)O[C@@H]2CN3CCC2CC3)cc1 (stereo partly drawn) [Example 269, (S)-quinuclidin-3-yl (3,3-dimethyl-7-(p-tolyl)chroman-4-yl)carbamate]
[1]
  IC50: 1.9 nM
[2]
  IC50: 0.66 nM

## COc1ccc(-c2cc3c(cc2F)C(NC(=O)O[C@@H]2CN4CCC2CC4)C(C)(C)CO3)c(C)c1 (stereo partly drawn) [Example 342, (S)-quinuclidin-3-yl (6-fluoro-7-(4-methoxy-2-methylphenyl)-3,3-dimethylchroman-4-yl)carbamate]
[1]
  IC50: 3.5 nM
[2]
  IC50: 0.45 nM

## COc1cc(F)ccc1-c1ccc2c(c1)OCC(C)(C)C2NC(=O)O[C@@H]1CN2CCC1CC2 (stereo partly drawn) [Example 120, (S)-quinuclidin-3-yl (7-(4-fluoro-2-methoxyphenyl)-3,3-dimethylchroman-4-yl)carbamate]
[1]
  IC50: 6.41 nM
[2]
  IC50: 0.71 nM

## CN(C)c1cccc(-c2ccc3c(c2)OCC(C)(C)C3NC(=O)O[C@@H]2CN3CCC2CC3)c1 (stereo partly drawn) [Example 148, (S)-quinuclidin-3-yl (7-(3-(dimethylamino)phenyl)-3,3-dimethylchroman-4-yl)carbamate]
[1]
  IC50: 0.03 nM
[2]
  IC50: 0.74 nM

## COc1cccc(OC)c1-c1ccc2c(c1)OCC(C)(C)C2NC(=O)O[C@@H]1CN2CCC1CC2 (stereo partly drawn) [Example 168, (S)-quinuclidin-3-yl (7-(2,6-dimethoxyphenyl)-3,3-dimethylchroman-4-yl)carbamate]
[1]
  IC50: 2.05 nM
[2]
  IC50: 1.4 nM

## COc1ccc(-c2ccc3c(c2)OCC(C)(C)C3NC(=O)O[C@@H]2CN3CCC2CC3)cc1C (stereo partly drawn) [Example 115, (S)-quinuclidin-3-yl (7-(4-methoxy-3-methylphenyl)-3,3-dimethylchroman-4-yl)carbamate]
[1]
  IC50: 3.72 nM
[2]
  IC50: 1.88 nM

## CC1(C)COc2cc(-c3cccc4c3oc3ccccc34)ccc2C1NC(=O)O[C@@H]1CN2CCC1CC2 (stereo partly drawn) [Example 290, (S)-quinuclidin-3-yl (7-(dibenzo[b,d]furan-4-yl)-3,3-dimethylchroman-4-yl)carbamate]
[1]
  IC50: 0.9 nM
[2]
  IC50: 1.54 nM

## CCOc1ccc(-c2ccc3c(c2)OCC(C)(C)C3NC(=O)O[C@@H]2CN3CCC2CC3)cn1 (stereo partly drawn) [Example 253, (S)-quinuclidin-3-yl (7-(6-ethoxypyridin-3-yl)-3,3-dimethylchroman-4-yl)carbamate]
[1]
  IC50: 6.4 nM
[2]
  IC50: 0.76 nM

## O=C(NC1CCOc2cc(-c3ccc4cc[nH]c4c3)ccc21)O[C@@H]1CN2CCC1CC2 (stereo partly drawn) [Example 45, (S)-quinuclidin-3-yl (7-(1H-indol-6-yl)chroman-4-yl)carbamate]
[1]
  IC50: 26.2 nM
[2]
  IC50: 4.13 nM

## O=C(NC1CCOc2cc(-c3ccc4c(c3)OCCCO4)ccc21)O[C@@H]1CN2CCC1CC2 (stereo partly drawn) [Example 58, (S)-quinuclidin-3-yl (7-(3,4-dihydro-2H-benzo[b][1,4]dioxepin-7-yl)chroman-4-yl)carbamate]
[1]
  IC50: 21.2 nM
[2]
  IC50: 2 nM

## N#Cc1cccc(-c2ccc3c(c2)OCCC3NC(=O)O[C@@H]2CN3CCC2CC3)c1 (stereo partly drawn) [Example 39, (S)-quinuclidin-3-yl (7-(3-cyanophenyl)chroman-4-yl)carbamate]
[1]
  IC50: 7.73 nM
[2]
  IC50: 1.82 nM

## CCOc1ccccc1-c1ccc2c(c1)OCCC2NC(=O)O[C@@H]1CN2CCC1CC2 (stereo partly drawn) [Example 20, (S)-quinuclidin-3-yl (7-(2-ethoxyphenyl)chroman-4-yl)carbamate]
[1]
  IC50: 19.1 nM
[2]
  IC50: 2.86 nM

## O=C(NC1CCSc2cc(-c3cccc(C(F)(F)F)c3)ccc21)O[C@@H]1CN2CCC1CC2 (stereo partly drawn) [Example 319, (S)-quinuclidin-3-yl (7-(3-(trifluoromethyl)phenyl)thiochroman-4-yl)carbamate]
[1]
  IC50: 6.7 nM
[2]
  IC50: 1.07 nM

## CC1(C)COc2cc(-c3ccc(F)cc3F)ccc2C1NC(=O)O[C@@H]1CN2CCC1CC2 (stereo partly drawn) [Example 233, (S)-quinuclidin-3-yl (7-(2,4-difluorophenyl)-3,3-dimethylchroman-4-yl)carbamate]
[1]
  IC50: 3 nM
[2]
  IC50: 0.49 nM

## COc1cccc(-c2cc3c(cc2F)C(NC(=O)O[C@@H]2CN4CCC2CC4)C(C)(C)CO3)c1 (stereo partly drawn) [Example 335, (S)-quinuclidin-3-yl (6-fluoro-7-(3-methoxyphenyl)-3,3-dimethylchroman-4-yl)carbamate]
[1]
  IC50: 2 nM
[2]
  IC50: 0.35 nM

## O=C(NC1CCSc2ccc(-c3ccc(Cl)cc3)cc21)O[C@@H]1CN2CCC1CC2 (stereo partly drawn) [Example 316, (S)-quinuclidin-3-yl (6-(4-chlorophenyl)thiochroman-4-yl)carbamate]
[1]
  IC50: 251 nM
[2]
  IC50: 36.5 nM

## CC1(C)COc2cc(-c3cccc(F)c3F)ccc2C1NC(=O)O[C@@H]1CN2CCC1CC2 (stereo partly drawn) [Example 239, (S)-quinuclidin-3-yl (7-(2,3-difluorophenyl)-3,3-dimethylchroman-4-yl)carbamate]
[1]
  IC50: 4.8 nM
[2]
  IC50: 0.47 nM

## CN(C)c1cc(-c2ccc3c(c2)OCCC3NC(=O)O[C@@H]2CN3CCC2CC3)ccc1F (stereo partly drawn) [Example 69, (S)-quinuclidin-3-yl (7-(3-(dimethylamino)-4-fluorophenyl)chroman-4-yl)carbamate]
[1]
  IC50: 8.93 nM
[2]
  IC50: 1.91 nM
